Measured values taken from publication PMC4216217 (Journal of Medicinal Chemistry, 2014).
Like-named read-outs stand apart in the source and are kept apart here.

Assays:
[1] = target: rat D3 dopamine receptors (Rattus norvegicus, UniProt P19020); test: biochemical; assay type: binding
rat D2-like receptors = rat D2-like receptors (Rattus norvegicus, UniProt P61169); test: biochemical; assay type: binding
human D3 receptor = human D3 receptor (Homo sapiens, UniProt P35462); test: cell-based; assay type: cell-based
Sequence of human D3 receptor (P35462 whole entry): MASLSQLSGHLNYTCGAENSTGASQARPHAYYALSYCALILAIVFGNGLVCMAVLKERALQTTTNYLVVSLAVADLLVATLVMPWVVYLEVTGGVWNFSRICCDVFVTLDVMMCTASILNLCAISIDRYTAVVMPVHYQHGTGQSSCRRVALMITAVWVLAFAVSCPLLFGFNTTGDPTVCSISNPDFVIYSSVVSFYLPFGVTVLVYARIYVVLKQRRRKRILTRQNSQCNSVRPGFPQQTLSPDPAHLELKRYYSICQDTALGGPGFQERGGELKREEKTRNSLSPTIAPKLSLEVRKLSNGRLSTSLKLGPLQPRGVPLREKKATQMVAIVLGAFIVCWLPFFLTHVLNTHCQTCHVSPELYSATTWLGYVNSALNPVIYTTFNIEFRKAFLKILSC

Sequence of rat D2-like receptors (P61169 1-415 isoform P61169-2): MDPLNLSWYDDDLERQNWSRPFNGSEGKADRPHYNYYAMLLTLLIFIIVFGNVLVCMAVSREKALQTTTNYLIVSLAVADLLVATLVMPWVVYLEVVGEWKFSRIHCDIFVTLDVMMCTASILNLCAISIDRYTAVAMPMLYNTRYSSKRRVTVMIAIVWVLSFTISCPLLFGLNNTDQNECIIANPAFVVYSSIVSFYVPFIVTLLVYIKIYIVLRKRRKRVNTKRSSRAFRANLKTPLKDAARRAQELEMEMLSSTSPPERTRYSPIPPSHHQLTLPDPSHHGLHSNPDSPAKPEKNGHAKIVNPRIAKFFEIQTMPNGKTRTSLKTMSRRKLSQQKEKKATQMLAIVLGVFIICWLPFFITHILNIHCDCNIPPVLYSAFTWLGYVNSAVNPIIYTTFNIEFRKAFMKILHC
Sequence of rat D3 dopamine receptors (P19020 whole entry): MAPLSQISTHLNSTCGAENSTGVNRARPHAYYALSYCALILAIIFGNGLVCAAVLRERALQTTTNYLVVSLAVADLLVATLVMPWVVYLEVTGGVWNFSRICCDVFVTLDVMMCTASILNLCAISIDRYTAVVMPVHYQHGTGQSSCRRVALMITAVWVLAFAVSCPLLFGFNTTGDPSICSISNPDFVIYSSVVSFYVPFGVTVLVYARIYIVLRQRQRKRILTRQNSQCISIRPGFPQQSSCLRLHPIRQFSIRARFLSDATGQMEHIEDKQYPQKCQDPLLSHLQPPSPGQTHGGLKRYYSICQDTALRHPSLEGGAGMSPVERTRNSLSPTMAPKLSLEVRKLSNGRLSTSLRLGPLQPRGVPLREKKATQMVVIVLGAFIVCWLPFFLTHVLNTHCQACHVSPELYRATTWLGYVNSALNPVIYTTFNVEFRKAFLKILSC

SMILES: CCCN(CC[C@]1(O)C[C@@H](NC(=O)c2ccc3ccccc3c2)C1)[C@H]1C[C@@H]1c1cccc(Cl)c1 (relative stereo) [(±)-13, N-(cis-3-(2-((((±)-trans)-2-(3-Chlorophenyl)cyclopropyl)(propyl)-amino)ethyl)-3-hydroxycyclobutyl)-2-naphthamide]
- selectivity D3/D2 [1]: >29000
- selectivity for rat D3 receptor over rat D2 receptor [1]: > 10000
- Ki ([1]; Ki ± SEM, D3): 26 nM
- binding to the rat D2 receptor (rat D2-like receptors; at 100 μM): neither compound showing measurable binding

SMILES: CCCN[C@@H]1C[C@H]1c1ccccc1 [(1R,2S)-9, (1R,2S)-2-Phenyl-N-propylcyclopropanamine]
- selectivity for rat D3 receptor over rat D2 receptor [1]: approximately 80 fold

SMILES: CCCN(CC[C@]1(O)C[C@@H](NC(=O)c2ccc3ccccc3c2)C1)[C@@H]1C[C@H]1c1ccccc1 [(1R,2S)-10, N-(cis-3-Hydroxy-3-(2-(((1R,2S)-2-phenylcyclopropyl)(propyl)amino)-ethyl)cyclobutyl)-2-naphthamide]
- selectivity for rat D3 receptor over rat D2 receptor [1]: 20–30 fold

SMILES: CCCN(CC[C@]1(O)C[C@@H](NC(=O)c2ccc3ccccc3c2)C1)C1CC1c1ccc(Cl)cc1 (relative stereo) [(±)-11, N-(cis-3-(2-((((±)-trans)-2-(4-Chlorophenyl)cyclopropyl)(propyl)-amino)ethyl)-3-hydroxycyclobutyl)-2-naphthamide]
- Ki (rat D2-like receptors): > 100000 nM
- binding to the rat D2 receptor (rat D2-like receptors): neither compound showing measurable binding

SMILES: CCCN(CC[C@]1(O)C[C@@H](NC(=O)c2ccc3ccccc3c2)C1)[C@@H]1C[C@H]1c1ccc(Cl)cc1 [(1R,2S)-11, N-(cis-3-(2-(((1R,2S)-2-(4-Chlorophenyl)cyclopropyl)(propyl)-amino)ethyl)-3-hydroxycyclobutyl)-2-naphthamide]
- binding to the rat D2 receptor (rat D2-like receptors): no appreciable binding
- EC50 (human D3 receptor): > 100 µM
- slope of the Schild plot (human D3 receptor; D3 activity stimulated by pramipexole): −0.83
- EC50 (human D3 receptor; read-out: agonist activity ED50, β-arrestin binding to human D3, U2OS): > 100 µM
- agonist activity (human D3 receptor; β-arrestin binding to human D3, in words): no agonist activity

SMILES: CCCN[C@H]1C[C@@H]1c1ccccc1 [(1S,2R)-9, (1S,2R)-2-Phenyl-N-propylcyclopropanamine]
- selectivity for rat D3 receptor over rat D2 receptor [1]: approximately 80 fold

SMILES: CCCN(CC[C@]1(O)C[C@@H](NC(=O)c2ccc3ccccc3c2)C1)[C@H]1C[C@@H]1c1ccccc1Cl (relative stereo) [(±)-12, N-(cis-3-(2-((((±)-trans)-2-(2-Chlorophenyl)cyclopropyl)(propyl)-amino)ethyl)-3-hydroxycyclobutyl)-2-naphthamide]
- Ki (rat D2-like receptors): 503 ± 63 nM

SMILES: CCCN(CC[C@]1(O)C[C@@H](NC(=O)c2ccc3ccccc3c2)C1)[C@H]1C[C@@H]1c1ccccc1 [(1S,2R)-10, N-(cis-3-Hydroxy-3-(2-(((1S,2R)-2-phenylcyclopropyl)(propyl)-amino)ethyl)cyclobutyl)-2-naphthamide]
- selectivity for rat D3 receptor over rat D2 receptor [1]: 20–30 fold
